In ChEMBL document CHEMBL5375952, “Discovery of Novel 8-Hydroxyquinoline Derivatives with Potent In Vitro and In Vivo Antifungal Activity” (J Med Chem, 2023):

Experiments:
Candida albicans [1] = test: Antifungal activity against Candida albicans SC5314 infected in C57BL/6 mouse assessed as mean fungal burden at 0.25 mg/kg, ip measured after 46 hrs by plate count method (reference value: 6.902 log10CFU/ml); format: functional
Candida albicans [2] = test: Synergistic antifungal activity against FLC-resistant Candida albicans 100 assessed as fractional inhibitory concentration index incubated for 48 hrs in presence of FLC by broth microdilution method; format: functional

Compound | Activity (Candida albicans [1]) [log10CFU/ml] | fractional inhibitory concentration index (FICI) (Candida albicans [2])
OC(Cn1cncn1)(Cn1cncn1)c1ccc(F)cc1F [FLUCONAZOLE] | 5.66 | 
CCN(CC)c1ccc(C(NC(=O)C(C)C)c2ccc3cccnc3c2O)cc1 (configuration not stated) |  | 0.14
